# Laboratory results: US6723364B1, “Fog treatment method using a liquid composition for treating fruits and vegetables and implementing device” (Xeda International, priority 1998, dated 2004)
# Legend:
# Assay type in all cases: cell-based
# Erwinia carotovora = assay: Bactericidal activity in vitro in LB agar medium; conditions: 28° C.
# Method: The bactericidal activity of eugenol and isoeugenol was evaluated in vitro and compared with that of other terpenes.
# The culture medium used is the following LB medium:
# Bactotryptone: 1% by weight
# Yeast extract: 0.5% by weight
# A suspension of bacteria at 10^6 CFU/ml was prepared in sterilized water from the LB medium. 200 μl of this bacterial suspension were added to 20 ml of presterilized LB culture medium brought to 55° C. The tested terpene is then added to the culture medium. After agitation, the medium is immediately divided among Petri dishes. The medium solidifies on cooling.
# Incubation is carried out at 28° C. when the bacterium is Erwinia carotovora and at 37° C. when the bacterium is Escherichia coli.
# The growth of mould in the culture medium is observed. The same experiment is carried out in the absence of terpene (control experiment).
# The results are evaluated using the following assessment scale:
# ++: mould growth identical to the control
# +: mould present with a marked reduction in growth with respect to the control
# : complete absence of growth.
# The results obtained for 3 different concentrations, namely 20, 80 and 320 μg/ml, in the case of the bacterium Erwinia carotovora are summarized in Table 7.
# The protocol used is that described above.
# Penicillium expansum [1] = assay: Fungicidal activity in vitro: mycelial growth on Cristomalt agar; conditions: PE
# Method: (§1) The Cristomalt medium used for the evaluations of the fungicidal activities comprises 0.1% of Cristomalt (malt extract) and 0.2% of agar.
# (§2) This culture medium is, after sterilization, brought to 55° C. The terpene compound tested is then introduced in the pure form into the culture medium under warm conditions. Immediately after agitating, the medium, enriched with the terpene product, is poured into Petri dishes (diameter 9 cm, filled with 20 ml of medium). The agar-comprising medium solidifies on cooling. The Petri dishes are then inoculated with plugs, with a diameter of 6 mm, withdrawn from the edge of a culture of the tested fungus, which culture is obtained on Cristomalt medium.
# (§3) Inoculation is carried out at 22° C.
# (§4) The mycelial growth was determined periodically (5 to 15 days, according to the species of fungus).
# (§5) The results are expressed in Table 3 below in terms of MIC, which is the content (in μg/ml) which makes it possible to obtain complete inhibition of mycelial growth.
# (§6) In f act, each experiment was carried out several times, so that, for each terpene and for each species of fungus, a minimum value and a maximum value were obtained.
# Alternaria alternata [2] = assay: as above; conditions: AA
# Method: as §1, §2, §3, §4, §5, §6
# Geocrichum candidum [3] = assay: as above; conditions: GC
# Method: as §1, §2, §3, §4, §5, §6
# Botrytis cinerea [4] = assay: as above; conditions: BC
# Method: as §1, §2, §3, §4, §5, §6
# Penicillium digitatum [5] = assay: as above; conditions: PD
# Method: as §1, §2, §3, §4, §5, §6
# [6] = test system: Phlyctaena vagabonda (“Gloeosporium”); assay: as above; conditions: PV
# Method: as §1, §2, §3, §4, §5, §6
# Phytophtora parasitica [7] = assay: as above; conditions: PhP
# Method: as §1, §2, §3, §4, §5, §6
# Fusarium oxysporum [8] = assay: as above
# Method: as §1, §2, §3, §4, §5, §6
# Gliocladium roseum = assay: as above; conditions: GR
# Method: as §1, §2, §3, §4, §5, §6
# Penicillium expansum [9] = assay: Germination of the spores in vitro; conditions: PE;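 further: ++ germination like control and 0 no spores germinated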
# Method: (§7) The activity of eugenol and of isoeugenol on the germination of the spores was evaluated in vitro and compared with that of other terpenes.
# (§8) The procedure of Example 4 is used to do this, except that the concentration of eugenol and of isoeugenol was set at x μg/ml in the culture media used and that 50 μl of a suspension of spores, adjusted to 100,000 spores/ml, are deposited in each Petri dish.
# (§9) The same experiment was carried out starting with a terpene-free culture medium (control test).
# (§10) The results were evaluated using the following assessment criteria:
# (§11) +: considerable reduction in the level of spores germinated
# (§12) The results obtained for 3 different concentrations of terpenes in the culture medium, namely 40 μg/ml, 80 μg/ml and 1280 μg/ml, are listed in Tables 4, 5 and 6.
# Alternaria alternata [10] = assay: Germination of the spores in vitro; conditions: AA;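 further: ++ germination like control and 0 no spores germinated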
# Method: as §7, §8, §9, §10, §11, §12
# Geocrichum candidum [11] = assay: Germination of the spores in vitro; conditions: GC
# Method: as §7, §8, §9, §10, §11, §12
# Botrytis cinerea [12] = assay: Germination of the spores in vitro; conditions: BC
# Method: as §7, §8, §9, §10, §11, §12
# Penicillium digitatum [13] = assay: Germination of the spores in vitro; conditions: PD
# Method: as §7, §8, §9, §10, §11, §12
# [14] = test system: Phlyctaena vagabonda (“Gloeosporium”); assay: Germination of the spores in vitro; conditions: PV;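 further: ++ germination like control and 0 no spores germinated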
# Method: as §7, §8, §9, §10, §11, §12
# Phytophtora parasitica [15] = assay: Germination of the spores in vitro; conditions: PhP
# Method: as §7, §8, §9, §10, §11, §12
# Fusarium oxysporum [16] = assay: Germination of the spores in vitro; conditions: FO;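 further: ++ germination like control and 0 no spores germinated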
# Method: as §7, §8, §9, §10, §11, §12
# [17] = MIC expressed on the scale of Table 2
# [18] = min-max range of several experiments, 22° C., read-out: MIC (content giving complete inhibition of mycelial growth)
smiles,measurement,setting,value
"C=C(C)C1CC=C(C)C(=O)C1 (stereo not shown) [CARVONE, carvone]",growth in the culture medium with respect to the control,Erwinia carotovora; Concentration 20 μg/ml,++
same,growth in the culture medium with respect to the control,Erwinia carotovora; Concentration 80 μg/ml,+
same,growth in the culture medium with respect to the control,Erwinia carotovora; Concentration 320 μg/ml,−
same,MIC,"Erwinia carotovora; Pectobacterium carotovorum, Erwinia sp., read-out: MIC (concentration needed to completely inhibit the growth of the bacteria)",80 to 160 µg/mL
same,Inhibition grades,Penicillium expansum [1]; [17],5 (80-160)
same,MIC,"Penicillium expansum [1]; Penicillium expansum, min-max range of several experiments, 22° C., read-out: MIC (content giving complete inhibition of mycelial growth)",80 to 160 µg/mL
same,Inhibition grades,Alternaria alternata [2]; [17],6 (40-80)
same,MIC,"Alternaria alternata [2]; Alternaria alternata, min-max range of several experiments, 22° C., read-out: MIC (content giving complete inhibition of mycelial growth)",40 to 80 µg/mL
same,Inhibition grades,Geocrichum candidum [3]; [17],5 (80-160)
same,MIC,Geocrichum candidum [3]; [18],80 to 160 µg/mL
same,Inhibition grades,Botrytis cinerea [4]; [17],7 (20-40)
same,MIC,"Botrytis cinerea [4]; Botrytis cinerea, min-max range of several experiments, 22° C., read-out: MIC (content giving complete inhibition of mycelial growth)",20 to 40 µg/mL
same,Inhibition grades,Penicillium digitatum [5]; [17],6 (40-80)
same,MIC,"Penicillium digitatum [5]; Penicillium digitatum, min-max range of several experiments, 22° C., read-out: MIC (content giving complete inhibition of mycelial growth)",40 to 80 µg/mL
same,Inhibition grades,[6]; [17],5 (80-160)
same,MIC,[6]; [18],80 to 160 µg/mL
same,Inhibition grades,Phytophtora parasitica [7]; [17],6 (40-80)
same,MIC,Phytophtora parasitica [7]; [18],40 to 80 µg/mL
same,MIC,"Fusarium oxysporum [8]; Fusarium oxysporum, FO, min-max range of several experiments, 22° C., read-out: MIC (content giving complete inhibition of mycelial growth)",40 to 80 µg/mL
same,Inhibition grades,"Fusarium oxysporum [8]; OF, MIC expressed on the scale of Table 2",6 (40-80)
same,MIC,"Gliocladium roseum; Clonostachys rosea, min-max range of several experiments, 22° C., read-out: MIC (content giving complete inhibition of mycelial growth)",40 to 80 µg/mL
same,Inhibition grades,Gliocladium roseum; [17],6 (40-80)
same,germination of the spores,Penicillium expansum [9]; x = 40 μg/ml,+
same,germination of the spores,Penicillium expansum [9]; x = 80 μg/ml,0
same,germination of the spores,Penicillium expansum [9]; x = 1280 μg/ml,0
same,germination of the spores,Alternaria alternata [10]; x = 40 μg/ml,+
same,germination of the spores,Alternaria alternata [10]; x = 80 μg/ml,0
same,germination of the spores,Alternaria alternata [10]; x = 1280 μg/ml,0
same,germination of the spores,Geocrichum candidum [11]; x = 40 μg/ml,+
same,germination of the spores,Geocrichum candidum [11]; x = 80 μg/ml,0
same,germination of the spores,Geocrichum candidum [11]; x = 1280 μg/ml,0
same,germination of the spores,Botrytis cinerea [12]; x = 40 μg/ml,+
same,germination of the spores,Botrytis cinerea [12]; x = 80 μg/ml,0
same,germination of the spores,Botrytis cinerea [12]; x = 1280 μg/ml,0
same,germination of the spores,Penicillium digitatum [13]; x = 40 μg/ml,+
same,germination of the spores,Penicillium digitatum [13]; x = 80 μg/ml,0
same,germination of the spores,Penicillium digitatum [13]; x = 1280 μg/ml,0
same,germination of the spores,[14]; x = 40 μg/ml,+
same,germination of the spores,[14]; x = 80 μg/ml,0
same,germination of the spores,[14]; x = 1280 μg/ml,0
same,germination of the spores,Phytophtora parasitica [15]; x = 40 μg/ml,0
same,germination of the spores,Phytophtora parasitica [15]; x = 80 μg/ml,0
same,germination of the spores,Phytophtora parasitica [15]; x = 1280 μg/ml,0
same,germination of the spores,Fusarium oxysporum [16]; x = 40 μg/ml,+
same,germination of the spores,Fusarium oxysporum [16]; x = 80 μg/ml,0
same,germination of the spores,Fusarium oxysporum [16]; x = 1280 μg/ml,0
